Blank lines part the entries; values can stand above or below the compound they belong to.
Legend:
[1] = molecular target: T1, A1R (Mus musculus, UniProt Q60612); experiment: TEpacVV FRET imaging of cAMP in primary neurons; type: cell-based; details: agonist, cAMP decrease, bath application
T1 sequence (Q60612 1-326): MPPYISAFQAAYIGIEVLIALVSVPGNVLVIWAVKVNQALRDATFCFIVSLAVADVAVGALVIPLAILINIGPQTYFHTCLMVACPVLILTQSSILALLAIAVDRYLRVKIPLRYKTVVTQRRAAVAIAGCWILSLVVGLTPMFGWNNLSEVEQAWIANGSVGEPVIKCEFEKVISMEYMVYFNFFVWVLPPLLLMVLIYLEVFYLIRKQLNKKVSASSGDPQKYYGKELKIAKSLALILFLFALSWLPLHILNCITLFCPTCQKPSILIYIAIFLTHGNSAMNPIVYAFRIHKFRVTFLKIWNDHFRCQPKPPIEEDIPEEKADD

[2] = molecular target: D1 dopamine receptor (D1R) (Mus musculus, UniProt Q61616); details: agonist, cAMP increase; dMSN cell body; bath application
Sequence of D1 dopamine receptor (D1R) (Q61616 whole entry): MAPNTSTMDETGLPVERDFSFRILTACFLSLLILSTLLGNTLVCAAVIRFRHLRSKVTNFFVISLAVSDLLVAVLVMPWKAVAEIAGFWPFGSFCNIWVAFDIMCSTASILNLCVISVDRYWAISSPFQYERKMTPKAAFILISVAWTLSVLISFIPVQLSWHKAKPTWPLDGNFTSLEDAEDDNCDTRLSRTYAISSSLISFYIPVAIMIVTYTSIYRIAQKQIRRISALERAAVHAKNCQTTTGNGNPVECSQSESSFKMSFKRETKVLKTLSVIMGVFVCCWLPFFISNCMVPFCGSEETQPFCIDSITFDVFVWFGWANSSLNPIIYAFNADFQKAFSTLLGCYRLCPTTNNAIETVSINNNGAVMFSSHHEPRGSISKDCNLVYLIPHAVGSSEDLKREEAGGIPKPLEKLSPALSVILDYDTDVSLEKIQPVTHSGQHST

EC50 ([1]; dMSN cell body): 0.112 ± 0.034 µM
Compound: Nc1ncnc2c1ncn2[C@@H]1O[C@H](CO)[C@@H](O)[C@H]1O [adenosine]

EC50 [2]: 0.0765 ± 0.0139 µM
Compound: NCCc1ccc(O)c(O)c1 [dopamine]

EC50 ([1]; dMSN): 0.0146 ± 0.0041 µM
Compound: C[C@@]1(O)[C@H](O)[C@@H](CO)O[C@H]1n1cnc2c(NC3CCCC3)nc(Cl)nc21 [2′MeCCPA]

— article PMC5761078 (Cell reports, 2018)
